Assay results as given in patent US20170334899A1, “AMINO-SUBSTITUTED ISOTHIAZOLES” (Bayer Pharma Aktiengesellschaft, priority 2014, published 2017).

What was measured:
CDK2/CycE = target: T1, CDK2/CycE (Homo sapiens, UniProt P24941); assay: CDK2/CycE kinase assay (TR-FRET); type: biochemical; conditions: avg, read-out: CDK2 avg (IC50 [mol/l])
T1 construct: GST; purchased ProQinase GmbH (Freiburg, Germany); host or cells: insect cells (Sf9)
Method in brief: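 GST-tagged human CDK2 and CycE from Sf9 cells, preincubated 15 min with compound, then 25 min at 22° C. with 10 μM ATP and 0.75 μM biotinylated Rb-derived peptide (final). Phospho-substrate read by TR-FRET (anti-pRB pSer807/pSer811, Eu anti-mouse IgG, streptavidin-XL665), 665/620 nm ratio, normalised to no-inhibitor and no-enzyme controls.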

[1] = target: T2, catalytic domain of human Bub1 (amino acids 704-1085) (Homo sapiens, UniProt O43683); assay: Bub1 kinase assay (TR-FRET); type: biochemical; conditions: 10 μM ATP, avg, read-out: Bub1 avg (IC50 [mol/l])
T2 construct: catalytic domain of human Bub1 (amino acids 704-1085); His6 (N); made in house; host or cells: insect cells (Hi5)
Method in brief: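 Readout is the 665/620 nm TR-FRET ratio from anti-phosphoserine antibody, Eu-labelled anti-mouse IgG and streptavidin-XL665, scaled between no-enzyme and uninhibited controls. Reaction: 1 μM biotinylated peptide, 10 μM ATP, 60 min, 22 °C, after 15 min compound preincubation with His6-Bub1 (704-1085, insect-expressed, ~200 ng/ml).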

T2 sequence (O43683 704-1085): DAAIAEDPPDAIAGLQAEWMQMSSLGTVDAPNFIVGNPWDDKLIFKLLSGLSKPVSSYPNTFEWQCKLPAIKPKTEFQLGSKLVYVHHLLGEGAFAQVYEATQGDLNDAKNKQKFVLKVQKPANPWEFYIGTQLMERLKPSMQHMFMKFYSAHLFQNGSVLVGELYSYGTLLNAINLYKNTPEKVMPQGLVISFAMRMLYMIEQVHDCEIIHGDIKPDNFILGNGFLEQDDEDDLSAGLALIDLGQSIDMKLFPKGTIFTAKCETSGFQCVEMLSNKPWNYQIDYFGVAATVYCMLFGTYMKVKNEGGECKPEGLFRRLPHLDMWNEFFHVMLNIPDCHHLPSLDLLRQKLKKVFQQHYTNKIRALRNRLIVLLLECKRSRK

`Cc1nsc(Nc2cnc(C(F)(F)F)cn2)c1C(=O)Nc1ccc(N2CCN(CC(F)(F)F)CC2)cn1` [Example 373, 3-methyl-N-{5-[4-(2,2,2-trifluoroethyl)piperazin-1-yl]pyridin-2-yl}-5-{[5-(trifluoromethyl)pyrazin-2-yl]amino}-1,2-thiazole-4-carboxamide] was tested, and the IC50 (CDK2/CycE) was over 20 µM and the IC50 [1] was over 20 µM.
Work on `Cc1nsc(Nc2cnc(C(F)(F)F)cn2)c1C(=O)Nc1ccc(N2CCN(CCC(F)(F)F)CC2)cn1` [Example 374, 3-methyl-5-{[5-(trifluoromethyl)pyrazin-2-yl]amino}-N-{5-[4-(3,3,3-trifluoropropyl)piperazin-1-yl]pyridin-2-yl}-1,2-thiazole-4-carboxamide] yielded an IC50 (CDK2/CycE) of over 20 µM and an IC50 [1] of over 20 µM.
For `Cc1nsc(Nc2cnc(C(F)(F)F)cn2)c1C(=O)Nc1ccc(OC[C@@H]2CCCN(CC(F)F)C2)nc1` [Example 375, N-(6-{[(3R)-1-(2,2-difluoroethyl)piperidin-3-yl]methoxy}pyridin-3-yl)-3-methyl-5-{[5-(trifluoromethyl)pyrazin-2-yl]amino}-1,2-thiazole-4-carboxamide], the IC50 (CDK2/CycE) was over 20 µM and the IC50 [1] was over 20 µM.
With `Cc1nsc(Nc2cnc(C(F)(F)F)cn2)c1C(=O)Nc1ccc(OC[C@@H]2CCCN(CC(F)(F)F)C2)nc1` [Example 376, 3-methyl-N-(6-{[(3R)-1-(2,2,2-trifluoroethyl)piperidin-3-yl]methoxy}pyridin-3-yl)-5-{[5-(trifluoromethyl)pyrazin-2-yl]amino}-1,2-thiazole-4-carboxamide] the IC50 (CDK2/CycE) was over 20 µM and the IC50 [1] was over 20 µM.
`Cc1nsc(Nc2cnc(C(F)(F)F)cn2)c1C(=O)Nc1ccc(OC[C@@H]2CCCN(CCC(F)(F)F)C2)nc1` [Example 377, 3-methyl-5-{[5-(trifluoromethyl)pyrazin-2-yl]amino}-N-(6-{[(3R)-1-(3,3,3-trifluoropropyl)piperidin-3-yl]methoxy}pyridin-3-yl)-1,2-thiazole-4-carboxamide] was tested, and the IC50 (CDK2/CycE) was over 20 µM and the IC50 [1] was over 20 µM.
`Cc1nsc(Nc2cnc(C(F)(F)F)cn2)c1C(=O)Nc1ccc(O[C@@H]2CCN(CC(F)F)C2)nc1` [Example 379, N-(6-{[(3R)-1-(2,2-difluoroethyl)pyrrolidin-3-yl]oxy}pyridin-3-yl)-3-methyl-5-{[5-(trifluoromethyl)pyrazin-2-yl]amino}-1,2-thiazole-4-carboxamide] showed an IC50 (CDK2/CycE) of over 20 µM and an IC50 [1] of at least 20 µM.
`Cc1nsc(Nc2cnc(C(F)(F)F)cn2)c1C(=O)Nc1ccc(O[C@@H]2CCN(CC(F)(F)F)C2)nc1` [Example 380, 3-methyl-N-(6-{[(3R)-1-(2,2,2-trifluoroethyl)pyrrolidin-3-yl]oxy}pyridin-3-yl)-5-{[5-(trifluoromethyl)pyrazin-2-yl]amino}-1,2-thiazole-4-carboxamide] was tested, and the IC50 (CDK2/CycE) was over 20 µM and the IC50 [1] was over 20 µM.
For `Cc1nsc(Nc2cnc(C(F)(F)F)cn2)c1C(=O)Nc1ccc(O[C@@H]2CCN(CCC(F)(F)F)C2)nc1` [Example 381, 3-methyl-5-{[5-(trifluoromethyl)pyrazin-2-yl]amino}-N-(6-{[(3R)-1-(3,3,3-trifluoropropyl)pyrrolidin-3-yl]oxy}pyridin-3-yl)-1,2-thiazole-4-carboxamide], the IC50 (CDK2/CycE) was over 20 µM and the IC50 [1] was over 20 µM.
`Cc1nsc(Nc2cnc(C(F)(F)F)cn2)c1C(=O)Nc1ccc(O[C@H]2CCN(CC(F)F)C2)nc1` [Example 382, N-(6-{[(3S)-1-(2,2-difluoroethyl)pyrrolidin-3-yl]oxy}pyridin-3-yl)-3-methyl-5-{[5-(trifluoromethyl)pyrazin-2-yl]amino}-1,2-thiazole-4-carboxamide] was tested, and the IC50 (CDK2/CycE) was over 20 µM and the IC50 [1] was over 20 µM.
With `Cc1nsc(Nc2cnc(C(F)(F)F)cn2)c1C(=O)Nc1ccc(O[C@H]2CCN(CC(F)(F)F)C2)nc1` [Example 383, 3-methyl-N-(6-{[(3S)-1-(2,2,2-trifluoroethyl)pyrrolidin-3-yl]oxy}pyridin-3-yl)-5-{[5-(trifluoromethyl)pyrazin-2-yl]amino}-1,2-thiazole-4-carboxamide] the IC50 (CDK2/CycE) was over 20 µM and the IC50 [1] was at least 20 µM.
`Cc1nsc(Nc2cnc(C(F)(F)F)cn2)c1C(=O)Nc1ccc(O[C@H]2CCN(CCC(F)(F)F)C2)nc1` [Example 384, 3-methyl-5-{[5-(trifluoromethyl)pyrazin-2-yl]amino}-N-(6-{[(3S)-1-(3,3,3-trifluoropropyl)pyrrolidin-3-yl]oxy}pyridin-3-yl)-1,2-thiazole-4-carboxamide] gave an IC50 (CDK2/CycE) of over 20 µM and an IC50 [1] of at least 20 µM.
`Cc1nsc(Nc2cnc(C(F)(F)F)cn2)c1C(=O)Nc1ccc(O[C@@H]2CCCN(CC(F)(F)F)C2)nc1` [Example 386, 3-methyl-N-(6-{[(3R)-1-(2,2,2-trifluoroethyl)piperidin-3-yl]oxy}pyridin-3-yl)-5-{[5-(trifluoromethyl)pyrazin-2-yl]amino}-1,2-thiazole-4-carboxamide] showed an IC50 (CDK2/CycE) of over 20 µM and an IC50 [1] of over 20 µM.
For `Cc1nsc(Nc2cnc(C(F)(F)F)cn2)c1C(=O)Nc1ccc(O[C@@H]2CCCN(CCC(F)(F)F)C2)nc1` [Example 387, 3-methyl-5-{[5-(trifluoromethyl)pyrazin-2-yl]amino}-N-(6-{[(3R)-1-(3,3,3-trifluoropropyl)piperidin-3-yl]oxy}pyridin-3-yl)-1,2-thiazole-4-carboxamide], the IC50 (CDK2/CycE) was over 20 µM and the IC50 [1] was over 20 µM.
`Cc1nsc(Nc2cnc(C(F)(F)F)cn2)c1C(=O)Nc1ccc(OCC2CCN(CC(F)(F)F)CC2(F)F)nc1` (stereo not shown) [Example 392, N-(6-{[3,3-difluoro-1-(2,2,2-trifluoroethyl)piperidin-4-yl]methoxy}pyridin-3-yl)-3-methyl-5-{[5-(trifluoromethyl)pyrazin-2-yl]amino}-1,2-thiazole-4-carboxamide] showed an IC50 (CDK2/CycE) of over 20 µM and an IC50 [1] of over 20 µM.
Work on `CCN1CCC(COc2ccc(NC(=O)c3c(C)nsc3Nc3cnc(C(F)(F)F)cn3)cn2)C(F)(F)C1` (stereo not shown) [Example 393, N-{6-[(1-ethyl-3,3-difluoropiperidin-4-yl)methoxy]pyridin-3-yl}-3-methyl-5-{[5-(trifluoromethyl)pyrazin-2-yl]amino}-1,2-thiazole-4-carboxamide] yielded an IC50 (CDK2/CycE) of over 20 µM and an IC50 [1] of over 20 µM.
Work on `Cc1nsc(Nc2cnc(C(F)(F)F)cn2)c1C(=O)Nc1ccc(F)c(OC[C@@H]2CCCN(CCC(F)(F)F)C2)c1` [Example 395, N-(4-fluoro-3-{[(3R)-1-(3,3,3-trifluoropropyl)piperidin-3-yl]methoxy}phenyl)-3-methyl-5-{[5-(trifluoromethyl)pyrazin-2-yl]amino}-1,2-thiazole-4-carboxamide] yielded an IC50 (CDK2/CycE) of over 20 µM and an IC50 [1] of over 20 µM.
`CCCCN1CCC(COc2ccc(NC(=O)c3c(C)nsc3Nc3cnc(C(F)(F)F)cn3)cn2)C(F)(F)C1` (stereo not shown) [Example 396, N-{6-[(1-butyl-3,3-difluoropiperidin-4-yl)methoxy]pyridin-3-yl}-3-methyl-5-{[5-(trifluoromethyl)pyrazin-2-yl]amino}-1,2-thiazole-4-carboxamide] showed an IC50 (CDK2/CycE) of over 20 µM and an IC50 [1] of over 20 µM.
`Cc1nsc(Nc2cnc(C(F)(F)F)cn2)c1C(=O)Nc1ccc(F)c(OC[C@H]2CCN(CC(F)F)C2)c1` [Example 397, N-(3-{[(3S)-1-(2,2-difluoroethyl)pyrrolidin-3-yl]methoxy}-4-fluorophenyl)-3-methyl-5-{[5-(trifluoromethyl)pyrazin-2-yl]amino}-1,2-thiazole-4-carboxamide] gave an IC50 (CDK2/CycE) of over 20 µM and an IC50 [1] of over 20 µM.
Compound `Cc1nsc(Nc2cnc(C(F)(F)F)cn2)c1C(=O)Nc1ccc(F)c(OC[C@H]2CCN(CC(F)(F)F)C2)c1` [Example 398, N-(4-fluoro-3-{[(3S)-1-(2,2,2-trifluoroethyl)pyrrolidin-3-yl]methoxy}phenyl)-3-methyl-5-{[5-(trifluoromethyl)pyrazin-2-yl]amino}-1,2-thiazole-4-carboxamide] has an IC50 (CDK2/CycE) of over 20 µM and an IC50 [1] of over 20 µM.
In the case of `Cc1nsc(Nc2cnc(C(F)(F)F)cn2)c1C(=O)Nc1ccc(F)c(OC[C@H]2CCN(CCC(F)(F)F)C2)c1` [Example 399, N-(4-fluoro-3-{[(3S)-1-(3,3,3-trifluoropropyl)pyrrolidin-3-yl]methoxy}phenyl)-3-methyl-5-{[5-(trifluoromethyl)pyrazin-2-yl]amino}-1,2-thiazole-4-carboxamide], the IC50 (CDK2/CycE) is reported as over 20 µM and the IC50 [1] is reported as over 20 µM.
